Data reported in paper PMC5760651, “Peptidomimetic blockade of MYB in acute myeloid leukemia” (Nature Communications, 2018).
Non-standard residues stand in square brackets, D forms with d. Residues, ends and D or L forms follow the SMILES beside them.

Tests used:
[1] = tested on: MV-411 cells; assay: MYB ChIP-seq; format: cell-based, human; conditions: 20 µM, 6 h, 3 biological replicates
Method: ChIP was performed as previously described. Briefly, cells were fixed in 1% formalin in phosphate-buffered saline (PBS) for 10 minutes at room temperature. Glycine (125 mM final concentration) and Tris-HCl pH 8 (100 mM final concentration) were added to the cells and cells were washed twice in ice-cold PBS and resuspended in sodium dodecyl sulfate (SDS) lysis buffer (1% SDS, 10 mM EDTA, 50 mM Tris–HCl, pH 8.1). Lysates were sonicated using the Covaris S220 adaptive focused sonicator to obtain 100–500 bp chromatin fragments (Covaris, Woburn, CA). Lysates containing sheared chromatin fragments were resuspended in 0.01% SDS, 1.1% Triton-X100, 1.2 mM EDTA, 16.7 mM Tris–HCl, pH 8.1,167 mM NaCl. Lysates and antibody-coupled beads were incubated over night at 4 °C. […] Libraries were sequenced on the Illumina HiSeq 2500 instruments, with 30 million 2 × 50 bp paired reads.
For ChIP-seq analysis, reads were quality and adapter trimmed using ‘trim_galore’ before aligning to human genome assembly hg19 with bwa mem using the default parameters. Aligned reads with the same start position and orientation were collapsed to a single read before subsequent analysis. Density profiles were created by extending each read to the average library fragment size and then computing density using the BEDTools suite. Enriched regions were discovered using MACS 2.0 and scored against matched input libraries. […]

[2] = tested on: MOLM-13, MV-411, ML-2 and HL-60 cells; assay: Cell viability of AML cell lines; format: cell-based, human; conditions: 6 days, 20 μM TG1, TG2 or TG3, 10 and 20 μM MYBMIM, peptide replacement every 48 h, compared to untreated control
Method: Cells were resuspended and plated at a concentration of 2 × 10^5 cells in 200 μl in 96-well tissue culture plates. Media with peptides was replaced every 48 h. To assess the number of viable cells, cells were resuspended in PBS and 10 µl of suspension was mixed in a 1:1 ratio with 0.4% Trypan Blue (Thermo Fisher) and counted using a hemacytometer (Hausser Scientific, Horsham, PA, USA). To assess viability using an ATP-based assay, cell viability was assessed using the CellTiter-Glo Luminescent Viability assay, according to the manufacturer’s instructions (Promega). Luminescence was recorded using the Infinite M1000Pro plate reader using integration time of 250 ms (Tecan).

[3] = tested on: CBP/P300; assay: Streptavidin affinity purification of CBP/P300 from MV-411 cell extracts with BIO-MYBMIM, with peptide competition; format: binding, human; conditions: 20-fold molar excess free peptide, MV-411 extracts, western blot
Method: Cells were lysed in RIPA buffer (Thermo Fisher) supplemented with a protease inhibitor mix comprised of AEBSF (0.5 mM concentration, Santa Cruz, SC-202041B), Bestatin (0.01 mM, Fisher/Alfa Aesar, J61106-MD), Leupeptin (0.1 mM, Santa Cruz, SC-295358B), and Pepstatin (0.001 mM, Santa Cruz, SC-45036A). Lysates were mechanically disrupted using Covaris S220 adaptive focused sonicator, according to the manufacturer’s instructions (Covaris, Woburn, CA). Lysates were cleared by centrifugation for 15 min at 18,000 × g and clarified lysates were quantified using the bicinchoninic acid assay (Pierce). Clarified lysates (20 μg of protein) were resolved using sodium dodecyl sulfate-polyacrylamide gel electrophoresis, and electroeluted using the Immobilon FL PVDF membranes (Millipore, Billerica, MA, USA). Membranes were blocked using the Odyssey Blocking buffer (Li-Cor, Lincoln, Nebraska, USA). The following primary antibodies were used as indicated: anti-MYB (1:1000, 05-175, Millipore), anti-CBP (1:1000, PA1-847, Invitrogen), anti-BCL2 (1:1000, 200-401-222, Rockland), anti-β actin (1:1000, 8H10D10, Cell Signaling). […] Blotted membranes were visualized using secondary antibodies conjugated to IRDye 800CW or IRDye 680RD (Goat anti-rabbit, 1:15,000, and goat anti-mouse, 1:15,000) and the Odyssey CLx fluorescence scanner, according to manufacturer’s instructions (Li-Cor, Lincoln, Nebraska, USA). […]

## CC[C@@H](C)[C@@H](NC(=O)[C@@H](CCCCN)NC(=O)[C@@H](CCC(=O)O)NC(=O)[C@@H](CC(C)C)NC(=O)[C@@H](CCC(=O)O)NC(=O)[C@@H](CC(C)C)NC(=O)[C@@H](CC(C)C)NC(=O)[C@@H](CC(C)C)NC(=O)[C@@H](CCSC)NC(=O)[C@@H](CO)NC(=O)[C@H](NC(=O)[C@@H](CCC(=O)O)NC(=O)[C@@H](CC(N)=O)NC(=O)[C@@H](CCC(=O)O)NC(=O)[C@@H](CC(C)C)NC(=O)[C@@H](CCCCN)NC(C)=O)[C@H](C)O)C(=O)N[C@H](CCCNC(=N)N)C(=O)N[C@H](CCCCN)C(=O)NCC(=O)NCC(=O)N[C@H](CCCNC(=N)N)C(=O)N[C@H](CCCNC(=N)N)C(=O)N[C@H](CCCNC(=N)N)C(=O)N[C@H](CCC(N)=O)C(=O)N[C@H](CCCNC(=N)N)C(=O)N[C@H](CCCNC(=N)N)C(=O)N[C@H](CCCCN)C(=O)N[C@H](CCCCN)C(=O)N[C@H](CCCNC(=N)N)C(=O)NCC(=O)N[C@H](Cc1ccc(O)cc1)C(N)=O [MYBMIM] (Ac-[dK][dL][dE][dN][dE][dT][dS][dM][dL][dL][dL][dE][dL][dE][dK][dI][dR][dK]GG[dR][dR][dR][dQ][dR][dR][dK][dK][dR]G[dY]-NH2)
[1]
  MYB complexes bound to promoters and enhancers eliminated: 2,690
[2]
  Growth of AML cell lines: sustained, logarithmic reduction of growth
[3]
  Displacement of cellular CBP/P300 from BIO-MYBMIM beads by free peptide: displacement of cellular CBP/P300
